The text below walks through data of US11464770B2, “Anticancer pharmaceutical composition” (NATIONAL CANCER CENTER, priority 2016, dated 2022).

Usually IC50 stands for the concentration needed to halve the response being measured.

The structures appear in SMILES notation. Read-outs that look alike come from different tables or passages of the source. Some results are limits rather than exact numbers.

The subject of the assay is colorectal cancer cell lines (e.g. DLD-1, HCT 116, SW620, HCT-15, HCT-8, RKO). Kind of assay: Cell based assay, cell viability (CellTiter-Glo), colorectal cancer cell lines. The conditions noted are these: Homo sapiens, 72 hours treatment. A digest of the protocol:
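Viability measured by ATP luminescence following 72 h treatment over a 0–2 μM final concentration range.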
A general note: ATP-based viability assays read luminescence as a measure of living cells.

With `CC(=O)c1c([S+]([O-])Cc2cnc3[nH]ccc3c2)[nH]c2c(Br)ccc(Cl)c2c1=O` (stereo not drawn) [Compound 107, 2-(((1H-pyrrolo[2,3-b]pyridin-5-yl)methyl)sulfinyl)-3-acetyl-8-bromo-5-chloroquinolin-4(1H)-one], the concentration for half-maximal inhibition (IC50) by setting is: (DLD-1 cells, read-out: IC50, colorectal cancer cell line DLD-1) more than 2000 nM; (HCT 116 cells, read-out: IC50, colorectal cancer cell line HCT 116) more than 2000 nM; (HCT-8 cells, read-out: IC50, colorectal cancer cell line HCT-8) more than 2000 nM; (HCT-15 cells, read-out: IC50, colorectal cancer cell line HCT-15) more than 2000 nM; (HT-29 cells, read-out: IC50, colorectal cancer cell line HT-29) more than 10000 nM; (LoVo cells, read-out: IC50, colorectal cancer cell line LoVo) more than 2000 nM. Also, the IC50 reads like this: (RKO cells, read-out: IC50, colorectal cancer cell line RKO) more than 2000 nM; (SW480 cells, read-out: IC50, colorectal cancer cell line SW480) more than 2000 nM; (SW-620, SW620 cells, read-out: IC50, colorectal cancer cell line SW620) more than 2000 nM.
